{"source": "ChEMBL document CHEMBL4118098", "about": "“Discovery of DS28120313 as a potent orally active hepcidin production inhibitor: Design and optimization of novel 4,6-disubstituted indazole derivatives” (Bioorg Med Chem Lett, 2017)", "key": {"[1]": {"biological_target": "Activated CDC42 kinase 1 (Homo sapiens) (UniProt Q07912)", "sequence (Q07912 whole entry, looked up)": "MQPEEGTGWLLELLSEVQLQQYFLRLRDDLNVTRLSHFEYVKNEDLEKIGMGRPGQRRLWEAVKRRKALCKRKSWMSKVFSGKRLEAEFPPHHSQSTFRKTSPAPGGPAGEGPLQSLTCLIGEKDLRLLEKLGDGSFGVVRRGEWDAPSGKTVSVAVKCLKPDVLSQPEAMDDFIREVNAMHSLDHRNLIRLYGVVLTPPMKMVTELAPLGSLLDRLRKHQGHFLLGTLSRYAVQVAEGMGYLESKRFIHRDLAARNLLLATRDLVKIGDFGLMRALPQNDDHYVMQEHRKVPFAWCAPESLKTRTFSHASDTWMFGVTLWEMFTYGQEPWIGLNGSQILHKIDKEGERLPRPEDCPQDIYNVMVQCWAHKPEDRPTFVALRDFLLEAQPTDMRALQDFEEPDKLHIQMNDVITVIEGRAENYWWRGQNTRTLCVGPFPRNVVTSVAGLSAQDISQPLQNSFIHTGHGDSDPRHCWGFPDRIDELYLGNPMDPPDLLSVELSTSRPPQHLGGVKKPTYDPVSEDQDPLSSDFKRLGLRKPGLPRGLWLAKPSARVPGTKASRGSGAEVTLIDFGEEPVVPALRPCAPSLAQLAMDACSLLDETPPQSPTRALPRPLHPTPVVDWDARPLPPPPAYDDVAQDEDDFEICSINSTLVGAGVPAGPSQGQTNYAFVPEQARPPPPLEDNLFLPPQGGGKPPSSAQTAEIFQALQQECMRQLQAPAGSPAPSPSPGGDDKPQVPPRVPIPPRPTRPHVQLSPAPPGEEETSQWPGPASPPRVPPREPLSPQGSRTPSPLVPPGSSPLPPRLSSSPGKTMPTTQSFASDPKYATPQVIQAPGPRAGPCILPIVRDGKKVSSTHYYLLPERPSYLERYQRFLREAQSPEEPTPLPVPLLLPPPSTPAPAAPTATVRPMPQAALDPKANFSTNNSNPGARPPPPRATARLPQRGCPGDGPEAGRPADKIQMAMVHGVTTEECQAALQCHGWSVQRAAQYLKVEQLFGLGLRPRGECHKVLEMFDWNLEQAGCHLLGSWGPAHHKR", "test": "Inhibition of ACK (unknown origin) at 0.45 uM relative to control"}, "[2]": {"biological_target": "T1, Mitogen-activated protein kinase 12 (Homo sapiens) (UniProt P53778)", "T1 sequence (whole entry)": "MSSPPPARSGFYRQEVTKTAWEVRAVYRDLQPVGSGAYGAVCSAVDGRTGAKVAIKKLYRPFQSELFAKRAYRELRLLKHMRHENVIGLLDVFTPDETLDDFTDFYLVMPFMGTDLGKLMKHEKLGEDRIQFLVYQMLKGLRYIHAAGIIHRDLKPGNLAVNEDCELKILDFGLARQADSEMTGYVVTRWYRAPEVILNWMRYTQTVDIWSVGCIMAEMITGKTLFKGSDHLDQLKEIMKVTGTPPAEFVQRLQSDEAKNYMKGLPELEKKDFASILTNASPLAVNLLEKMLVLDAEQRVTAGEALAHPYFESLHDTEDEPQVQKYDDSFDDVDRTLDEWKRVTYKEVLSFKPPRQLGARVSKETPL", "test": "Inhibition of p38-gamma (unknown origin) at 0.45 uM relative to control"}, "[3]": {"biological_target": "Serine/threonine-protein kinase MARK1 (Homo sapiens) (UniProt Q9P0L2)", "test": "Inhibition of MARK1 (unknown origin) at 0.19 uM relative to control"}, "[4]": {"biological_target": "Ribosomal protein S6 kinase alpha-5 (Homo sapiens) (UniProt O75582)", "test": "Inhibition of MSK1 (unknown origin) at 0.19 uM relative to control"}, "[5]": {"biological_target": "Tyrosine-protein kinase receptor TYRO3 (Homo sapiens) (UniProt Q06418)", "test": "Inhibition of TYRO3 (unknown origin) at 0.19 uM relative to control"}, "[6]": {"biological_target": "Calcium/calmodulin-dependent protein kinase type IV (Homo sapiens) (UniProt Q16566)", "test": "Inhibition of CAMK4 (unknown origin) at 0.19 uM relative to control"}, "[7]": {"biological_target": "T2, Serine/threonine-protein kinase D1 (Homo sapiens) (UniProt Q15139)", "T2 sequence (whole entry)": "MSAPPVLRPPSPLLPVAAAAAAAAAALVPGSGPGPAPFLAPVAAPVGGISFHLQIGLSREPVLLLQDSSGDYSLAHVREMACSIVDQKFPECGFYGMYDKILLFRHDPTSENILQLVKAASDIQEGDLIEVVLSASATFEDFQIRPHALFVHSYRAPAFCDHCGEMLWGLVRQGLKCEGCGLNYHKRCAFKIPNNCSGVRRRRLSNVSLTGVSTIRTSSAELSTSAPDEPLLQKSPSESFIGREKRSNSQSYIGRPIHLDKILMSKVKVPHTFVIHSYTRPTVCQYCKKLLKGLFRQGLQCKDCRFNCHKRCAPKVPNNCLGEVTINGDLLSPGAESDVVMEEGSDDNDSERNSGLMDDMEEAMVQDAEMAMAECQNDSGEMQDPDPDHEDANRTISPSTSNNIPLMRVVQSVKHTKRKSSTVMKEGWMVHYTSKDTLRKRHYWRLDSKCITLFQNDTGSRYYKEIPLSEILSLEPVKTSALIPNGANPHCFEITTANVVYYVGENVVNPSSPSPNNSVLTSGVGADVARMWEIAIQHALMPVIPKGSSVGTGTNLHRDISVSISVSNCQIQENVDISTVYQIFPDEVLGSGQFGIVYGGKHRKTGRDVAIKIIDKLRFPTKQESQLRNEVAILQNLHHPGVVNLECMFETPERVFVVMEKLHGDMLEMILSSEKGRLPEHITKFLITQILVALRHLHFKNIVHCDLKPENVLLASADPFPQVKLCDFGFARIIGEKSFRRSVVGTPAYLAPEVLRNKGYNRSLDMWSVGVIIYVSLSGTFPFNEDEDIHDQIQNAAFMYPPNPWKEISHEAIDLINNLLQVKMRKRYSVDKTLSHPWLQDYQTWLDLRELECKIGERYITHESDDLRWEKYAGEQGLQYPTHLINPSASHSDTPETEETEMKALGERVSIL", "test": "Inhibition of PKD1 (unknown origin) at 0.19 uM relative to control"}, "[8]": {"biological_target": "Vascular endothelial growth factor receptor 2 (Homo sapiens) (UniProt P35968)", "test": "Inhibition of KDR (unknown origin) at 0.19 uM relative to control"}, "[9]": {"biological_target": "MAP/microtubule affinity-regulating kinase 3 (Homo sapiens) (UniProt P27448)", "sequence (P27448 whole entry, looked up)": "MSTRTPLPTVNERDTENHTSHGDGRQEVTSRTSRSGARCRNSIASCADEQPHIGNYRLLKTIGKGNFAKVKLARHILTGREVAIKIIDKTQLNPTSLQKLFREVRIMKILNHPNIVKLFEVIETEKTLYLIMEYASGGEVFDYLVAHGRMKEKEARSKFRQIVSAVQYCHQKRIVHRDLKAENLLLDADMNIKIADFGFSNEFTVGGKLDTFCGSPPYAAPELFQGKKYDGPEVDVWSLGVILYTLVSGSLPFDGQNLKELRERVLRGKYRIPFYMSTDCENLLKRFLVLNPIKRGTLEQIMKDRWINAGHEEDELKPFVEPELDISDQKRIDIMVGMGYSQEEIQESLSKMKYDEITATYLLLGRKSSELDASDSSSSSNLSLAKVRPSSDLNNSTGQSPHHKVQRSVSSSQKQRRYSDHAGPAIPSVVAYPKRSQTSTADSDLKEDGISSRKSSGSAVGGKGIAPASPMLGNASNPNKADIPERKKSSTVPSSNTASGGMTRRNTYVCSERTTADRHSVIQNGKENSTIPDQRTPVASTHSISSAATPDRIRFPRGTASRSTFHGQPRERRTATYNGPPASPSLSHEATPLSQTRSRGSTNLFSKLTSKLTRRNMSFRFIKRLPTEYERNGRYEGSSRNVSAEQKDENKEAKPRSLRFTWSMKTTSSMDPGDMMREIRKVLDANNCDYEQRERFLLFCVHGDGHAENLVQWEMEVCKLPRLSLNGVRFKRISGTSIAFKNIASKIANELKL", "test": "Inhibition of c-TAK1 (unknown origin) at 0.19 uM relative to control"}, "[10]": {"biological_target": "Tyrosine-protein kinase Fer (Homo sapiens) (UniProt P16591)", "test": "Inhibition of Fer (unknown origin) at 0.19 uM relative to control"}, "[11]": {"biological_target": "Discoidin domain-containing receptor 2 (Homo sapiens) (UniProt Q16832)", "sequence (Q16832 whole entry, the tested form may be a part)": "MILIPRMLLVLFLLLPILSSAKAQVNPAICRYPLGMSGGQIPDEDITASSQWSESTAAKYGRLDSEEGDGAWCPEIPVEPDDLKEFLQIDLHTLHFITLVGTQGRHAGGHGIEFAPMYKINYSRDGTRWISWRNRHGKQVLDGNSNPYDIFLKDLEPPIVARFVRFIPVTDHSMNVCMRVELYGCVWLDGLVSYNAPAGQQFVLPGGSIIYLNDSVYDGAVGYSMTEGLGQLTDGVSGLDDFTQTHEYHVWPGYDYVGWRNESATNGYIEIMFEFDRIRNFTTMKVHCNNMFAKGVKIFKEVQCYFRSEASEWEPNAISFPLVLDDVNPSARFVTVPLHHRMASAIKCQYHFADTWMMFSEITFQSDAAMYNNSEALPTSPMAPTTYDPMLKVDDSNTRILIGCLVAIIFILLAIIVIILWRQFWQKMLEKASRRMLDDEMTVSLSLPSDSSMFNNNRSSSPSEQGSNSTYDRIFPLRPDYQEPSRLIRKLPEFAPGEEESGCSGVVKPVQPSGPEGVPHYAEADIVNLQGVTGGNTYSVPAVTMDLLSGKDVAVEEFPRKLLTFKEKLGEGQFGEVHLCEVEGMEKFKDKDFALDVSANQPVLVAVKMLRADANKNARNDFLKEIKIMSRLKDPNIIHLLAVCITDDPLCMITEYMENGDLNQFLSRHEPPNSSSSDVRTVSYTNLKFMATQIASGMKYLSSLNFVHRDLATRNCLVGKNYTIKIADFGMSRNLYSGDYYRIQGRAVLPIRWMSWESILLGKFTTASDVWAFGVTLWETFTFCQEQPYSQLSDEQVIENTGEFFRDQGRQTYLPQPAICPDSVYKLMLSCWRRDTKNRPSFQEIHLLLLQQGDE", "test": "Inhibition of DDR2 (unknown origin) at 0.19 uM relative to control"}, "[12]": {"biological_target": "Epidermal growth factor receptor (Homo sapiens) (UniProt P00533)", "test": "Inhibition of EGFR (unknown origin) at 0.19 uM relative to control"}, "[13]": {"biological_target": "Ephrin type-B receptor 2 (Homo sapiens) (UniProt P29323)", "sequence (P29323 whole entry)": "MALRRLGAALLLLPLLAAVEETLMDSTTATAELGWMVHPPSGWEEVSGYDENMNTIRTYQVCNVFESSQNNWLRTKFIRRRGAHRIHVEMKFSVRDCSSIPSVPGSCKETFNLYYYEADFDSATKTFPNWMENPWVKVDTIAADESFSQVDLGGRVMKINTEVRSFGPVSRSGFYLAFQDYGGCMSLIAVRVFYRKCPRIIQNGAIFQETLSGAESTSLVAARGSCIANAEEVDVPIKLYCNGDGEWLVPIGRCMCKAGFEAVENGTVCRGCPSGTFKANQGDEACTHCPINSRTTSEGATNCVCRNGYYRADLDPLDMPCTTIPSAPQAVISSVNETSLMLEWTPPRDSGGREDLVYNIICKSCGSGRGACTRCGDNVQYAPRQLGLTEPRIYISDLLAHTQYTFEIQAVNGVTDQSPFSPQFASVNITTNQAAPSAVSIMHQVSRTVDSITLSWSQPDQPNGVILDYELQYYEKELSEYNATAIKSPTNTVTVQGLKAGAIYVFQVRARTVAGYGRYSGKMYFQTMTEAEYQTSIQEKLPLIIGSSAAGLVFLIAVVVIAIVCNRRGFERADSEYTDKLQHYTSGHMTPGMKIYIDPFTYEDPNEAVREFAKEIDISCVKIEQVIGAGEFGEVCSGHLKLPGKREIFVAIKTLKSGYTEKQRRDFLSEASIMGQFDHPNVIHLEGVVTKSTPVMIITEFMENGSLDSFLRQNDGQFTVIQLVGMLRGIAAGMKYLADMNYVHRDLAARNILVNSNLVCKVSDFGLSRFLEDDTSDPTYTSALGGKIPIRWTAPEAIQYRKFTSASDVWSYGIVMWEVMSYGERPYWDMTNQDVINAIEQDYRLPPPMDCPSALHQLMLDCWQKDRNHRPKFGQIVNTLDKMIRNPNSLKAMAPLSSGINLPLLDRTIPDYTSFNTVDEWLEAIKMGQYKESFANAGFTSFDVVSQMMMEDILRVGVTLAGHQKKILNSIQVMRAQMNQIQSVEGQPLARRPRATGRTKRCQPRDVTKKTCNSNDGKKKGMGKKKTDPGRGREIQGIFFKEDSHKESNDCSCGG", "test": "Inhibition of EPHB2 (unknown origin) at 0.19 uM relative to control"}, "[14]": {"biological_target": "Protein kinase C theta type (Homo sapiens) (UniProt Q04759)", "test": "Inhibition of PKC-theta (unknown origin) at 0.164 uM relative to control"}, "[15]": {"biological_target": "Calcium/calmodulin-dependent protein kinase type 1D (Homo sapiens) (UniProt Q8IU85)", "sequence (Q8IU85 whole entry, looked up)": "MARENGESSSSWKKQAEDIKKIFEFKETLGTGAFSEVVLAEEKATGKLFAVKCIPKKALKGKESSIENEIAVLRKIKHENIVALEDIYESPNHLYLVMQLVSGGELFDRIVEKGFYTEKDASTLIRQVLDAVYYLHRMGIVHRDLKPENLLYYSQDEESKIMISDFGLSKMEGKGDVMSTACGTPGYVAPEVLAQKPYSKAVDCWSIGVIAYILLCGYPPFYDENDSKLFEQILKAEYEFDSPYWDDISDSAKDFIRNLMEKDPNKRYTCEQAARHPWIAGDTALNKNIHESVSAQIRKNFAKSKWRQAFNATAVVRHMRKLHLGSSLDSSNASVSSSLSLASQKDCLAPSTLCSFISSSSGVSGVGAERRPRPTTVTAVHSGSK", "test": "Inhibition of CamK1d (unknown origin) at 0.164 uM relative to control"}, "[16]": {"biological_target": "Serine/threonine-protein kinase Sgk1 (Homo sapiens) (UniProt O00141)", "test": "Inhibition of SGK1 (unknown origin) at 0.164 uM relative to control"}, "[17]": {"biological_target": "Protein kinase C eta type (Homo sapiens) (UniProt P24723)", "sequence (P24723 whole entry)": "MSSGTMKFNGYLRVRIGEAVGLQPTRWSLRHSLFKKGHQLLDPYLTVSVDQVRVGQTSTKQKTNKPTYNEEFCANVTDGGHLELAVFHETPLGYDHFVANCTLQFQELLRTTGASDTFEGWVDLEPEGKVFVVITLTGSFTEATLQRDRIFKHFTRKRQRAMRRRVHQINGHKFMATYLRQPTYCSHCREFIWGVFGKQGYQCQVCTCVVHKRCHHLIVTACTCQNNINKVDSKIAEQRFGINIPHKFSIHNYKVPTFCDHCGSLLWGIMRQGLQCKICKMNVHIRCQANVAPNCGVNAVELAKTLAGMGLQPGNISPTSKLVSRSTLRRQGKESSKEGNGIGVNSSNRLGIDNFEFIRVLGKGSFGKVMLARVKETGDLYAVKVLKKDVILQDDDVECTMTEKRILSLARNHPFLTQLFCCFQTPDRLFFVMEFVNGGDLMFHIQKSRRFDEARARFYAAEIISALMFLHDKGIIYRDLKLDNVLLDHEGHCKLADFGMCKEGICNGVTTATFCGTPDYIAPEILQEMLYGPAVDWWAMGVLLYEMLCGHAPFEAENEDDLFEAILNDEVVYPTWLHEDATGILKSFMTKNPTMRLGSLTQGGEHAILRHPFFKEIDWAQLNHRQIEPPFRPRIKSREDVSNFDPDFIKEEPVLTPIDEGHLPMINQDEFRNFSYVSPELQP", "test": "Inhibition of PKC-eta (unknown origin) at 0.164 uM relative to control"}, "[18]": {"biological_target": "Protein kinase C zeta type (Homo sapiens) (UniProt Q05513)", "test": "Inhibition of PKC-zeta (unknown origin) at 0.164 uM relative to control"}, "[19]": {"biological_target": "T3, Testis-specific serine/threonine-protein kinase 1 (Homo sapiens) (UniProt Q9BXA7)", "T3 sequence (whole entry)": "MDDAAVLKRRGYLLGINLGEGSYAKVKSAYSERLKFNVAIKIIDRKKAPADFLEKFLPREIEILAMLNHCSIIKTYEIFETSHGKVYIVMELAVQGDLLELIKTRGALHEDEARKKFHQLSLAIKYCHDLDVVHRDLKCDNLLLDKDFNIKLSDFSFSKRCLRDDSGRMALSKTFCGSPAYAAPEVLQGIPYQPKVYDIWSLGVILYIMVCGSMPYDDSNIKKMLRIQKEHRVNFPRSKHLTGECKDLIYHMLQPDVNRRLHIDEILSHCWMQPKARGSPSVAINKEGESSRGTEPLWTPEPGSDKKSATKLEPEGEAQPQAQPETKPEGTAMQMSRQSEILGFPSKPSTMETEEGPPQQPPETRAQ", "test": "Inhibition of TSSK1 (unknown origin) at 0.164 uM relative to control"}}}
{"smiles": "Cc1n[nH]c(C)c1-c1ccc2c(NC(=O)c3ccc(N4CCN(C)CC4)cc3)n[nH]c2c1", "values": [{"measurement": "inhibition", "setting": "[1]", "value": 13, "unit": "%"}, {"measurement": "inhibition", "setting": "[2]", "value": 0, "unit": "%"}]}
{"smiles": "Cc1[nH]nc(C2CC2)c1-c1ccc2c(-c3ccc(N4CCN(C)CC4)nc3)n[nH]c2c1", "values": [{"measurement": "inhibition", "setting": "[3]", "value": -5.3, "unit": "%"}, {"measurement": "inhibition", "setting": "[4]", "value": 1.3, "unit": "%"}, {"measurement": "inhibition", "setting": "[5]", "value": 10, "unit": "%"}, {"measurement": "inhibition", "setting": "[6]", "value": 1.3, "unit": "%"}, {"measurement": "inhibition", "setting": "[7]", "value": 7, "unit": "%"}, {"measurement": "inhibition", "setting": "[8]", "value": 51, "unit": "%"}, {"measurement": "inhibition", "setting": "[9]", "value": 0.3, "unit": "%"}, {"measurement": "inhibition", "setting": "[10]", "value": -2.3, "unit": "%"}, {"measurement": "inhibition", "setting": "[11]", "value": 5.3, "unit": "%"}, {"measurement": "inhibition", "setting": "[12]", "value": -6.7, "unit": "%"}, {"measurement": "inhibition", "setting": "[13]", "value": 4, "unit": "%"}]}
{"smiles": "COC(=O)Nc1cc(-c2c(C3CC3)n[nH]c2C)cc2[nH]ncc12", "values": [{"measurement": "inhibition", "setting": "[14]", "value": 7, "unit": "%"}, {"measurement": "inhibition", "setting": "[15]", "value": -9.3, "unit": "%"}, {"measurement": "inhibition", "setting": "[16]", "value": 0.3, "unit": "%"}, {"measurement": "inhibition", "setting": "[17]", "value": -4.7, "unit": "%"}, {"measurement": "inhibition", "setting": "[18]", "value": 11.7, "unit": "%"}, {"measurement": "inhibition", "setting": "[19]", "value": -4.3, "unit": "%"}]}
